Assays:
[1] = system: eHAP MUS81−/−DNPH1−/− cells; assay: Cell viability assay (CellTiter-Glo), eHAP MUS81−/−DNPH1−/− cells; format: cell-based, human; conditions: for sensitivity of MUS81/DNPH1 k/o cells to nucleoside treatment (cell viability): nucleoside 200 nM, vs MUS81 k/o; for sensitisation to PARP inhibitor by loss of DNPH1: vs MUS81 k/o cells, continuous treatment 6 days
Description: (§1) For analysis of cell viability following exposure to olaparib (Selleckchem), deoxyribonucleosides and DNPH1i (N6-benzyladenosine, Carbosynth), cells were seeded in 96-well plates at a density of 100-500 cells per well. Twenty-four hours post-seeding, drug treatments were initiated, and cells were continuously exposed until termination of the experiment. Cell viability was measured using CellTiter-Glo (Promega). The surviving fractions were measured, and drug sensitivity curves were plotted using GraphPad Prism. The following nucleosides were purchased from commercial sources: dU (2′-deoxyuridine), hdU (5-hydroxy-2′-deoxyuridine), hmdU (5-hydroxymethyl-2′-deoxyuridine), mdC (5-methyl-2′-deoxycytidine), hmdC (5-hydroxymethyl-2′-deoxycytidine), cadC (5-carboxy-2-deoxycytidine), fodC (5-formyl-2-deoxycytidine), dl (2′-deoxyinosine), dX (2′-deoxyxanthosine), 8odG (8-oxo-2′-deoxyguanosine), hmU (5 hydroxymethyluridine), hmC (5-hydroxymethyl-cytidine). fodU (5-formyl-2′-deoxyuridine) was synthesized as previously described (Guo et al Org. Biomol. Chem. 11, 1610-1613 (2013).

[2] = system: eHAP MUS81−/− cells; assay: Cell viability assay (CellTiter-Glo), eHAP MUS81−/− cells; format: cell-based, human; conditions: for effect on viability, agent alone: single agent
Description: as §1

[3] = biological target: T1, recombinant human DNPH1 (Homo sapiens, UniProt O43598); assay: DNPH1 in vitro activity assay (RP-HPLC); format: biochemical; conditions: for DNPH1 activity towards nucleoside monophosphate substrates: DNPH1 4 μM, substrate 1 mM, 45 min, RP-HPLC
T1 construct: His6 (N); made in house; host or cells: E. coli BL21 (pET28a)
T1 sequence (O43598 1-174): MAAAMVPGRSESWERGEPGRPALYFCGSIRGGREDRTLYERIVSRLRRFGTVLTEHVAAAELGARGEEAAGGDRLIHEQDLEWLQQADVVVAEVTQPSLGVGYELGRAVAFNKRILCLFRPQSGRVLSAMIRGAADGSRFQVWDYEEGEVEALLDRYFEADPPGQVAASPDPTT
Description: HIS6DNPH1 and HIS6DNPH1E105Q, cloned in pET28a were transformed into BL21 cells. Transformed cells were inoculated into 2 L of TB media supplemented with 50 μg/ml kanamycin and incubated 37° C. until an OD600=1.0. IPTG (0.5 mM) was added and incubation continued for 4 hours. Cells were harvested by centrifugation and resuspended in lysis buffer (50 mM HEPES pH 7.5, 300 mM NaCl, 5% glycerol, 0.5 mM TCEP) supplemented with protease inhibitors (Complete EDTA-free tablets, Roche). Cells were lysed by passage through an Emulsiflex C5 (Avestin) at […], and the chromatin sheared by sonication at 50% maximum amplitude for 2×30 sec. Soluble proteins were isolated by ultracentrifugation (Beckman Type JLA25.50 rotor) at 60,000×g for 60 min (4° C.). Soluble extract was supplemented with 30 mM imidazole and incubated with 2 ml Ni-NTA beads (GE Healthcare) for 1 hour (4° C.). The beads were washed (50 mM HEPES pH 7.5, 300 mM NaCl, 30 mM imidazole, 5% glycerol, 0.5 mM TCEP) and protein eluted (50 mM HEPES pH7.5, 300 mM NaCl, 200 mM imidazole, 5% glycerol, 0.5 mM TCEP). The eluates were pooled, diluted dropwise to 100 mM NaCl (50 mM HEPES pH 7.5, 5% glycerol, 0.5 mM DTT) and DNPH1 further purified using a 5 ml HiTRAP QHP column (GE Healthcare), followed by a Superdex 200 Increase 10/300 column (GE Healthcare). Peak fractions were separated by SDS-PAGE and visualized with Instant Blue (Gentaur). Peak fractions were frozen in aliquots and stored at −80° C.
DNPH1 (4 μM) was incubated with nucleoside monophosphates (1 mM) in 20 mM sodium phosphate, pH 7.0, 150 mM NaCl, 2 mM MgCl2. After 45 min at room temperature the reaction was quenched by addition of 0.7% perchloric acid followed by immediate neutralization with addition of sodium acetate to 200 mM. Samples were diluted 1:10 into RP-Buffer (100 mM K2HPO4/KH2PO4, pH 6.5, 10 mM tetrabutylammonium bromide, 7% acetonitrile) and the nucleotides and reaction products separated from precipitated protein by filtration through a 0.22 μm centrifugal filter (Durapore-PVDF, Millipore). Samples of each reaction (5 nmol) were applied to a Zorbax SB-C18 column (4.6×250 mm, 3.5 μm, 80A pore size, Agilent Technologies), maintained at 30° C. and mounted on a Jasco HPLC system controlled by Chromnav software (v1.19, Jasco). Nucleoside monophosphates and reaction products were separated under isocratic flow by application of RP-Buffer at 1 mL/min. Absorbance data from the column eluent was continuously monitored between 200-400 nm (2 nm interval) using an MD-2010 photodiode array detector (JASCO). […] Peak integration of the absorbance data recorded at 260 nm was used to quantify the amount of substrate and product. […] The rate was determined by linear regression of a plot of product against reaction time.

[4] = system: eHAP WT and MUS81−/− isogenic cells; assay: LD80 dose used in genome-wide CRISPR-Cas9 screen; format: cell-based, human; conditions: 10 days
Description: eHAP WT and MUS81−/− isogenic cells were transduced with a genome-wide lentiviral lentiCRISPRv2 sgRNA library (Doench et al 2016, PMID: 26780180) using multiplicity of infection (MOI) of ˜0.5 with a complexity of 400 cells/sgRNA. Transduced cells were selected with puromycin (0.4 mg/ml), expanded for 7 days, and sub-cultured in the presence or absence of an LD80 dose of olaparib (200 nM) or hmdC (1000 nM) for 10 days. Surviving cells were collected and genomic DNA was extracted using DNeasy Blood & Tissue Kit (Qiagen) supplemented with RNAse (Qiagen) according to the manufacturer's instructions. The CRISPR screens were carried out in biological triplicates. Libraries for Illumina sequencing were generated by two-step PCR amplification. In the first PCR, the sgRNA library was amplified and adaptors were added using nesting primers and the second PCR added barcodes, stagger regions, flow cell attachment and Illumina sequencing primers.
MUS81 k/o cells were transduced with the lentiviral-based Brunello genome-wide gRNA library (J. G. Doench et al Nat. Biotechnol. 34, 184-191 (2016)), followed by treatment with olaparib for 10 days. […] Bioinformatic analysis of the gRNA reads using the MAGeCK algorithm identified several novel, as well as previously reported, factors determining PARPi efficacy (FIG. 1).

[5] = system: DCTD k/o cell lines; assay: Cell viability, DCTD k/o cell lines; format: cell-based
Description: as §1

[6] = system: DLD1 BRCA2−/− cells; assay: Cell viability assay, DLD1 BRCA2−/− cells; format: cell-based; conditions: olaparib 10 nM or hmdU 2 μM, 10 days
Description: as §1

[7] = system: SUM149 BRCA1mut (parental) cells; assay: Cell viability assay, SUM149 BRCA1mut (parental) cells; format: cell-based, human; conditions: olaparib 250 nM or hmdU 2 μM, 8 days
Description: as §1

SMILES | effect on viability, agent alone [2] | DNPH1 activity towards nucleoside monophosphate substrates [3] | sensitisation to PARP inhibitor by loss of DNPH1 [1] | other results
OC[C@H]1O[C@@H](n2cnc3c(NCc4ccccc4)ncnc32)[C@H](O)[C@@H]1O [DNPH1i, N6-benzyladenosine] | no effect on viability | – | – | effect of DNPH1i on viability (specificity control) ([1]; with hmdU, 6 days, DNPH1 k/o cells): only a marginal effect; effect of DNPH1i on viability (specificity control) ([2]; with hmdU, 6 days, cells with DNPH1 (text: wild-type)): dose-dependent decrease in viability
O=c1[nH]c(=O)n([C@H]2C[C@H](O)C(COP(=O)(O)O)O2)cc1CO (some centres unmarked) [hmdUMP] | – | efficiently hydrolyzed | – | reaction rate of hmdUMP hydrolysis by DNPH1 ([3]; DNPH1 (2 μM), samples quenched at intervals up to 20 minutes, linear regression): 14.6 ± 0.4 µM/min
O=c1ccn([C@H]2C[C@H](O)[C@@H](COP(=O)(O)O)O2)c(=O)[nH]1 [dUMP] | – | Little or no activity | – | –
Nc1nc(=O)n([C@H]2C[C@H](O)[C@@H](CO)O2)cc1CO [hmdC, 5-hydroxymethyl-2′-deoxycytidine] | – | – | – | LD80 dose [4]: 1000 nM; sensitivity of MUS81/DNPH1 k/o cells to nucleoside treatment (cell viability) ([1]; 6 days): to a lesser extent; resistance of DCTD k/o cells to nucleoside treatment [5]: completely resistant
Cn1ncnc1[C@H]1c2n[nH]c(=O)c3cc(F)cc(c23)N[C@@H]1c1ccc(F)cc1 [talazoparib, (8S,9R)-5-Fluoro-8-(4-fluorophenyl)-9-(1-methyl-1H-1,2,4-triazol-5-yl)-2,7,8,9-tetrahydro-3H-pyrido[4,3,2-de]phthalazin-3-one] | limited effect on viability | – | sensitised | –
O=Cc1cn([C@H]2C[C@H](O)[C@@H](CO)O2)c(=O)[nH]c1=O [fodU, 5-formyl-2′-deoxyuridine] | – | – | – | sensitivity of MUS81/DNPH1 k/o cells to nucleoside treatment (cell viability) ([1]; 6 days): to a lesser extent
C[C@]1(c2nc3c(C(N)=O)cccc3[nH]2)CCCN1 [veliparib, 2-[(2R)-2-Methyl-2-pyrrolidinyl]-1H-benzimidazole-4-carboxamide] | limited effect on viability | – | sensitised | –
O=c1ccn([C@@H]2O[C@H](COP(=O)(O)O)[C@@H](O)[C@H]2O)c(=O)[nH]1 [UMP] | – | Little or no activity | – | –
O=C(c1cc(Cc2n[nH]c(=O)c3ccccc23)ccc1F)N1CCN(C(=O)C2CC2)CC1 [olaparib, 1-(Cyclopropylcarbonyl)-4-[5-[(3,4-dihydro-4-oxo-1-phthalazinyl)methyl]-2-fluorobenzoyl]piperazine] | limited effect on viability | – | sensitized | LD80 dose [4]: 200 nM; effect on viability, agent alone [6]: limited effect on viability; effect on viability, agent alone [7]: limited effect on viability

— US20220339179A1, “TREATMENT OF HR DEFICIENT CANCER” (THE FRANCIS CRICK INSTITUTE LIMITED, priority 2019, published 2022)
